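How tested: cells in 96-well plates exposed to compound for 48 hours at five concentrations. At the GI50, growth is halved.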 Calls of active or inactive are those of the source. Cut-off read from the data, not from the text of the source: active = GI50 up to about 1.1 µM and inactive = higher.
Tests used:
Experiment in all cases: NCI-60 cell line screen, 48 h
Malme-3M = tested on: Malme-3M
OVCAR-4 = tested on: OVCAR-4
SK-MEL-28 = tested on: SK-MEL-28
T47D = tested on: T47D
UO-31 = tested on: UO-31
786-0 = tested on: 786-0
A498 = tested on: A498
A549 = tested on: A549
ACHN = tested on: ACHN
CAKI-1 = tested on: CAKI-1
CCRF-CEM = tested on: CCRF-CEM
COLO 205 = tested on: COLO 205
DU-145 = tested on: DU-145
EKVX = tested on: EKVX
HCC 2998 = tested on: HCC 2998
HCT-116 = tested on: HCT-116
HCT-15 = tested on: HCT-15
HL-60 = tested on: HL-60
HOP-62 = tested on: HOP-62
HOP-92 = tested on: HOP-92
HT-29 = tested on: HT-29
Hs-578T = tested on: Hs-578T
IGROV-1 = tested on: IGROV-1
K562 = tested on: K562
KM12 = tested on: KM12
M14 = tested on: M14
MCF7 = tested on: MCF7
MDA-MB-231 = tested on: MDA-MB-231
MDA-MB-435 = tested on: MDA-MB-435
MOLT-4 = tested on: MOLT-4
NCI-H226 = tested on: NCI-H226
NCI-H23 = tested on: NCI-H23
NCI-H522 = tested on: NCI-H522
NCI/ADR-RES = tested on: NCI/ADR-RES
OVCAR-3 = tested on: OVCAR-3
OVCAR-5 = tested on: OVCAR-5
OVCAR-8 = tested on: OVCAR-8
PC-3 = tested on: PC-3
RPMI-8226 = tested on: RPMI-8226
RXF 393 = tested on: RXF 393
SF-268 = tested on: SF-268
SF-295 = tested on: SF-295
SF-539 = tested on: SF-539
SK-MEL-2 = tested on: SK-MEL-2
SK-MEL-5 = tested on: SK-MEL-5
SK-OV-3 = tested on: SK-OV-3
SN12C = tested on: SN12C
SNB-19 = tested on: SNB-19
SNB-75 = tested on: SNB-75
SR = tested on: SR
SW-620 = tested on: SW-620
TK-10 = tested on: TK-10
U-251 = tested on: U-251
UACC-257 = tested on: UACC-257
UACC-62 = tested on: UACC-62
LOX IMVI = tested on: LOX IMVI
MDA-N = tested on: MDA-N
NCI-H460 = tested on: NCI-H460

## CC(=O)O[C@H]1C(=O)[C@@]2(C)C(C(OC(=O)c3ccccc3)[C@]3(O)CC(OC(=O)[C@H](OC(=O)CCC(=O)O)C(NC(=O)c4ccccc4)c4ccccc4)C(C)=C1C3(C)C)C1(OC(C)=O)COC1C[C@@H]2OC(=O)CCC(=O)O (some centres undefined)
Malme-3M
  GI50: 11.6 µM (inactive)
OVCAR-4
  GI50: > 79.4 µM (inactive)
SK-MEL-28
  GI50: 5.6 µM (inactive)
T47D
  GI50: 0.822 µM (active)
UO-31
  GI50: 83.9 µM (inactive)

## O=C1CC(c2ccsc2)n2cccc21 (centres undefined)
786-0
  GI50: > 100 µM (inactive)
A498
  GI50: > 100 µM (inactive)
A549
  GI50: > 100 µM (inactive)
ACHN
  GI50: > 100 µM (inactive)
CAKI-1
  GI50: > 100 µM (inactive)
CCRF-CEM
  GI50: > 100 µM (inactive)
COLO 205
  GI50: > 100 µM (inactive)
DU-145
  GI50: > 100 µM (inactive)
EKVX
  GI50: > 100 µM (inactive)
HCC 2998
  GI50: > 100 µM (inactive)
HCT-116
  GI50: > 100 µM (inactive)
HCT-15
  GI50: > 100 µM
HL-60
  GI50: > 100 µM (inactive)
HOP-62
  GI50: > 100 µM (inactive)
HOP-92
  GI50: > 100 µM (inactive)
HT-29
  GI50: > 100 µM (inactive)
Hs-578T
  GI50: > 100 µM (inactive)
IGROV-1
  GI50: > 100 µM (inactive)
K562
  GI50: > 100 µM (inactive)
KM12
  GI50: > 100 µM (inactive)
M14
  GI50: > 100 µM (inactive)
MCF7
  GI50: > 100 µM (inactive)
MDA-MB-231
  GI50: > 100 µM (inactive)
MDA-MB-435
  GI50: > 100 µM (inactive)
MOLT-4
  GI50: > 10 µM (inactive)
NCI-H226
  GI50: > 100 µM (inactive)
NCI-H23
  GI50: > 100 µM (inactive)
NCI-H522
  GI50: > 100 µM (inactive)
NCI/ADR-RES
  GI50: > 100 µM (inactive)
OVCAR-3
  GI50: > 100 µM (inactive)
OVCAR-4
  GI50: > 100 µM (inactive)
OVCAR-5
  GI50: > 100 µM (inactive)
OVCAR-8
  GI50: > 100 µM (inactive)
PC-3
  GI50: > 100 µM (inactive)
RPMI-8226
  GI50: > 100 µM (inactive)
RXF 393
  GI50: > 100 µM (inactive)
SF-268
  GI50: > 100 µM (inactive)
SF-295
  GI50: > 100 µM (inactive)
SF-539
  GI50: > 100 µM (inactive)
SK-MEL-28
  GI50: > 100 µM (inactive)
SK-MEL-2
  GI50: > 100 µM (inactive)
SK-MEL-5
  GI50: > 100 µM (inactive)
SK-OV-3
  GI50: > 100 µM (inactive)
SN12C
  GI50: > 100 µM (inactive)
SNB-19
  GI50: > 100 µM (inactive)
SNB-75
  GI50: 32.1 µM (inactive)
SR
  GI50: > 100 µM (inactive)
SW-620
  GI50: > 100 µM (inactive)
T47D
  GI50: > 100 µM (inactive)
TK-10
  GI50: > 100 µM (inactive)
U-251
  GI50: > 100 µM (inactive)
UACC-257
  GI50: > 100 µM (inactive)
UACC-62
  GI50: > 100 µM (inactive)
UO-31
  GI50: > 100 µM (inactive)

## O=c1c(Nc2ccccc2)cn(CCOc2ccc(Cl)cc2)c(=O)n1CCOc1ccc(Cl)cc1
786-0
  GI50: 28.1 µM (inactive)
A498
  GI50: > 100 µM (inactive)
A549
  GI50: > 100 µM (inactive)
ACHN
  GI50: > 100 µM (inactive)
CAKI-1
  GI50: > 100 µM (inactive)
CCRF-CEM
  GI50: 64 µM (inactive)
COLO 205
  GI50: > 100 µM (inactive)
DU-145
  GI50: 75.2 µM (inactive)
EKVX
  GI50: 55.7 µM (inactive)
HCC 2998
  GI50: 22.2 µM (inactive)
HCT-116
  GI50: > 100 µM (inactive)
HCT-15
  GI50: > 100 µM
Hs-578T
  GI50: 60 µM (inactive)
IGROV-1
  GI50: > 100 µM (inactive)
K562
  GI50: > 100 µM (inactive)
KM12
  GI50: > 100 µM (inactive)
LOX IMVI
  GI50: > 100 µM (inactive)
M14
  GI50: 60.3 µM (inactive)
MDA-MB-435
  GI50: 39.1 µM (inactive)
MDA-N
  GI50: > 100 µM (inactive)
MOLT-4
  GI50: > 100 µM (inactive)
NCI-H23
  GI50: > 100 µM (inactive)
NCI-H460
  GI50: > 100 µM (inactive)
OVCAR-4
  GI50: 26.7 µM (inactive)
PC-3
  GI50: 41.1 µM (inactive)
RPMI-8226
  GI50: > 100 µM (inactive)
RXF 393
  GI50: 36.4 µM (inactive)
SF-268
  GI50: 89.9 µM (inactive)
SF-295
  GI50: > 100 µM (inactive)
SK-MEL-28
  GI50: > 100 µM (inactive)
SK-MEL-5
  GI50: 75.2 µM (inactive)
SN12C
  GI50: > 100 µM (inactive)
SNB-19
  GI50: > 100 µM (inactive)
SR
  GI50: 96.2 µM (inactive)
SW-620
  GI50: > 100 µM (inactive)
U-251
  GI50: > 100 µM (inactive)
UACC-257
  GI50: > 100 µM (inactive)
UACC-62
  GI50: > 100 µM (inactive)
UO-31
  GI50: 51.9 µM (inactive)

## CN(C)/C=N\c1c(Br)cc(Br)c2nonc12
786-0
  GI50: > 100 µM (inactive)
A498
  GI50: > 100 µM (inactive)
A549
  GI50: > 100 µM (inactive)
ACHN
  GI50: > 100 µM (inactive)
CAKI-1
  GI50: > 100 µM (inactive)
CCRF-CEM
  GI50: > 100 µM (inactive)
COLO 205
  GI50: > 100 µM (inactive)
DU-145
  GI50: > 100 µM (inactive)
EKVX
  GI50: > 100 µM (inactive)
HCC 2998
  GI50: > 100 µM (inactive)
HCT-116
  GI50: > 100 µM (inactive)
HCT-15
  GI50: > 100 µM
HL-60
  GI50: > 100 µM (inactive)
HOP-62
  GI50: > 100 µM (inactive)
HOP-92
  GI50: 85.7 µM (inactive)
HT-29
  GI50: > 100 µM (inactive)
Hs-578T
  GI50: 66.4 µM (inactive)
IGROV-1
  GI50: > 100 µM (inactive)
K562
  GI50: > 100 µM (inactive)
KM12
  GI50: > 100 µM (inactive)
M14
  GI50: > 100 µM (inactive)
MCF7
  GI50: > 100 µM (inactive)
MDA-MB-231
  GI50: > 100 µM (inactive)
MDA-MB-435
  GI50: > 100 µM (inactive)
MDA-N
  GI50: > 100 µM (inactive)
MOLT-4
  GI50: > 100 µM (inactive)
Malme-3M
  GI50: > 100 µM (inactive)
NCI-H226
  GI50: > 100 µM (inactive)
NCI-H23
  GI50: > 100 µM (inactive)
NCI-H460
  GI50: > 100 µM (inactive)
NCI-H522
  GI50: > 100 µM (inactive)
NCI/ADR-RES
  GI50: > 100 µM (inactive)
OVCAR-3
  GI50: > 100 µM (inactive)
OVCAR-4
  GI50: > 100 µM (inactive)
OVCAR-5
  GI50: > 100 µM (inactive)
OVCAR-8
  GI50: > 100 µM (inactive)
PC-3
  GI50: > 100 µM (inactive)
RPMI-8226
  GI50: > 100 µM (inactive)
RXF 393
  GI50: > 100 µM (inactive)
SF-268
  GI50: > 100 µM (inactive)
SF-295
  GI50: > 100 µM (inactive)
SF-539
  GI50: > 100 µM (inactive)
SK-MEL-28
  GI50: > 100 µM (inactive)
SK-MEL-2
  GI50: > 100 µM (inactive)
SK-MEL-5
  GI50: > 100 µM (inactive)
SK-OV-3
  GI50: > 100 µM (inactive)
SN12C
  GI50: > 100 µM (inactive)
SNB-19
  GI50: > 100 µM (inactive)
SNB-75
  GI50: 44.3 µM (inactive)
SR
  GI50: > 100 µM (inactive)
SW-620
  GI50: > 100 µM (inactive)
T47D
  GI50: > 100 µM (inactive)
TK-10
  GI50: > 100 µM (inactive)
UACC-257
  GI50: > 100 µM (inactive)
UACC-62
  GI50: > 100 µM (inactive)
UO-31
  GI50: > 100 µM (inactive)
